Test results as given in patent US7053052B2, “Therapies involving mutated heat shock transcription factor” (priority 1997, dated 2006).

Assays:
HepG2 cells = assay: Mortality from exposure to cyclophosphamide (LDH release, mortality); conditions: cyclophosphamide 20 mM
HeLa-CAT cells = assay: Recovery of translation after heat shock (3H-leucine pulse-labeling); type: cell-based, human; conditions: contribution of untransfected cells subtracted
Experimental: In a typical experiment, parallel HeLa-CAT cultures in 60 mm dishes (more than 70% confluent) were transfected with 0.75 ug of EGFP construct and 2.25 ug of HSF1(+) or HSF1(−) construct and 15 ul Lipofectamine™. Before exposing the cultures to heat shock about 36 hours post transfection, cells were replated (to achieve about 70% confluence). Note that in some experiments, HSF1(+) was delivered by infection with an adenoviral vector rather than by transfection. Cultures were exposed to a 42° C./1 hour heat shock and then returned to 37° C. Rates of protein synthesis before, during, and at different times after a subsequent, more severe heat shock were determined by pulse-labeling of cells with ^3H-leucine. For labeling, cultures were washed two times with prewarmed PBS, and one ml of labeling medium (leucine-free DMEM with 2% FBS and 65 uCi of ^3H-leucine (179 Ci/mmolc)) was added. […] Relative rates of protein synthesis were calculated as cpm/ug protein. […]
To find out whether HSF1(−) could function as a negatively acting factor, HeLa-CAT cells containing integrated copies of an hsp70B-chloramphenicol acetyltransferase (CAT) gene were co-transfected with an HSF1(−) and an EFGP-expressing construct. […] Rates of protein synthesis were assessed by pulse-labeling cells with ^3H-leucine. […]

Row | Substance | reduction of mortality by LDH leakage assay (HepG2 cells) | reduction of cyclophosphamide-caused mortality (HepG2 cells; 24 hour) | corrected rate of protein synthesis one hour after heat shock (HeLa-CAT cells; first experiment) | corrected rate of protein synthesis one hour after heat shock (HeLa-CAT cells; second experiment)
1 | human HSF1d202–316 [HSF1(+)] | 43% | 55% |  | 
2 | human HSF1d453–523 [HSF1(−)] |  |  | about 5% | ~24%
